Measured values as given in ChEMBL document CHEMBL1124292, “Synthesis and evaluation of neoplastic cell growth inhibition of 1-N-alkylamide analogues of glycero-3-phosphocholine” (1988).

The molecules below were run on HL-60 (assay: Inhibitory dose against HL60 human leukemic cells after incubation for 48 h). Conditions: HL-60, 48 h, read-out: ID50 (the source's name).
Assay type: functional

| IC50 | SMILES |
| --- | --- |
| 2.45 µM | CCCCCCCCCCCCCCCCCC(=O)NCC(COP(=O)([O-])OCC[N+](C)(C)C)OC (stereo unspecified) |
| 1.64 µM | CCCCCCCCCCCCCCCCCC(=O)NCC(COP(=O)([O-])OCC[N+](C)(C)C)OCC (stereo unspecified) |
| 2.47 µM | CCCCCCCCCCCCCCCCCCOCC(COP(=O)([O-])OCC[N+](C)(C)C)OC (racemic) [EDELFOSINE] |

Second part, the molecule before the results:

| SMILES | IC50 |
| --- | --- |
| CCCCCCCCCCCCCCCC(=O)NCC(COP(=O)([O-])OCC[N+](C)(C)C)OC (stereo unspecified) | 3.32 µM |
| CCCCCCCCCCCCCCCC(=O)NCC(COP(=O)([O-])OCC[N+](C)(C)C)OCC (stereo unspecified) | 2.32 µM |
| CCCCCCCCCCCCCCCC(=O)NCC(O)COP(=O)([O-])OCC[N+](C)(C)C (stereo unspecified) | > 10 µM |
